Experimental data published in patent US20240287080A1 (IDEAYA Biosciences Inc., priority 2021, published 2024).

These compounds were tested against T1, Pol theta (1-899) (Homo sapiens, UniProt O75417) (assay: Pol theta ATPase activity, NADH oxidation-coupled enzymatic assay (ATPase NADH coupling: Standard Screening: hPolQ)). Conditions: Pol theta (1-899) 5 nM, NADH oxidation-coupled ATPase assay; compounds of Table 3.
T1 construct: Pol theta (1-899) (5 nM) in assay buffer
Assay type: biochemical
Protocol: The ability of the compounds of Formula (I) or Table 1 to inhibit ATPase activity of Pol theta (1-899) was determined using the assay described below. Pol Theta ATPase activity was determined by measuring the rate of ATP turn over in a NADH oxidation-coupled enzymatic assay. 10-point dilution series of compounds were used in a 384 well format for the inhibition assays. Pol theta (1-899) (5 nM) in assay buffer (20 mM Tris HCl (pH 7.80), 80 mM KCl, 10 mM MgCl2, 1 mM DTT, 0.01% BSA, 0.01% Tween, 5% glycerol) was transferred to the test wells (20 μL), except the low control wells (20 μL of assay buffer was added to the low control wells). The plate was then incubated at room temperature for 15 min. An equal volume (20 μL) of 100 μM ATP, 300 nM […] (single-stranded DNA (ssDNA) containing 50 thymine bases), 300 μM NADH, 6 mM PEP, 10 U/mL lactate dehydrogenase and 20 U/mL pyruvate kinase in assay buffer was added to all the test wells. The plate was then centrifuged at 1000 rpm for 1 min. The reaction was monitored for 60 min by measuring absorbance (λ=340 nm) in a Tecan Spark multimode plate reader every minute. The high control (DMSO with enzyme) with low absorbance intensity represents no inhibition of ATPase reaction while the low control (DMSO with buffer) with high absorbance intensity represents full inhibition of ATPase activity. Slope of the reaction progress curves were used to calculate the rate of ATP hydrolysis. The rates were used to determine the percent inhibition using a four-parameter inhibition model to generate IC50, Hill slope and max inhibition.

T1 sequence (O75417 1-899): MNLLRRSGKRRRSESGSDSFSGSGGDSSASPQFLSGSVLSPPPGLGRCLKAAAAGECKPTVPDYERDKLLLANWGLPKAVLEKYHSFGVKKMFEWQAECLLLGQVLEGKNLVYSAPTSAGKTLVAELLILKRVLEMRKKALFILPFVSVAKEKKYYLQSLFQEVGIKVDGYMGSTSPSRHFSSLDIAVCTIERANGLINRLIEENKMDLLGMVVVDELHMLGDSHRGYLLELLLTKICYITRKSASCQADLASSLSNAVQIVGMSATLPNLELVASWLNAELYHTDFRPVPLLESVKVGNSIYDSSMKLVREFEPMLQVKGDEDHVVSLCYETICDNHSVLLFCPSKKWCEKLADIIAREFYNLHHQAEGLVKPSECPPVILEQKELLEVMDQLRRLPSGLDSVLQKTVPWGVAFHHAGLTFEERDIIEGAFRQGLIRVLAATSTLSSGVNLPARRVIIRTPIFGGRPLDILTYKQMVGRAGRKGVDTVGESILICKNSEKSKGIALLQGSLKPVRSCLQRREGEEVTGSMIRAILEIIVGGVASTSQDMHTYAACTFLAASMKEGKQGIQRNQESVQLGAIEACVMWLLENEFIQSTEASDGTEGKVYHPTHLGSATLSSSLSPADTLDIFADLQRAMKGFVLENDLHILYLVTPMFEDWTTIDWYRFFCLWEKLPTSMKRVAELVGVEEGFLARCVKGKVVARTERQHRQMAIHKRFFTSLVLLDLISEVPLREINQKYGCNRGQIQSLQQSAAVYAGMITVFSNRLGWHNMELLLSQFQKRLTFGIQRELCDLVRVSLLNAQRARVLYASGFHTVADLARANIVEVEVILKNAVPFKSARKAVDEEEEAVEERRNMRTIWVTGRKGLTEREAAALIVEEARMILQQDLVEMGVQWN

IC50 [nM]	Compound
1000 to 10000	COCCOc1cccc(-c2cc(C)ncc2C(=O)Nc2nnc(OC)s2)c1 [Example 429, N-(5-methoxy-1,3,4-thiadiazol-2-yl)-4-[3-(2-methoxyethoxy)phenyl]-6-methylpyridine-3-carboxamide]
≤ 200	COc1nnc(NC(=O)c2ccc(C#N)cc2-c2cc(Cl)ncc2OC)s1 [Example 248, 2-(2-chloro-5-methoxypyridin-4-yl)-4-cyano-N-(5-methoxy-1,3,4-thiadiazol-2-yl)benzamide]
1000 to 10000	COc1nnc(NC(=O)c2cnc(C)cc2-c2cnc(N(C)C)nc2)s1 [Example 458, 4-(2-(dimethylamino)pyrimidin-5-yl)-N-(5-methoxy-1,3,4-thiadiazol-2-yl)-6-methylnicotinamide]
1000 to 10000	COc1nnc(NC(=O)c2cnc(C)cc2-c2ccc(-c3ccccc3)cc2)s1 [Example 370, 4-{[1,1′-biphenyl]-4-yl}-N-(5-methoxy-1,3,4-thiadiazol-2-yl)-6-methylpyridine-3-carboxamide]
≤ 200	COc1cnc(Cl)cc1-c1cc(C)ncc1C(=O)Nc1nnc(O[C@@H]2C[C@H](F)CN(C3COC3)C2)s1 (single isomer, unassigned) [Example 260]
≤ 200	COc1cnc(C)c(F)c1-c1cc(C)ncc1C(=O)Nc1nnc(O[C@H]2CCC[C@H](O)C2)s1 (single isomer, unassigned) [Example 256]
≤ 200	COc1cnc(C)c(F)c1-c1cc(C)ncc1C(=O)Nc1nnc(OCCN(C)CC(F)(F)F)s1 [Example 258, 3′-fluoro-5′-methoxy-2′,6-dimethyl-N-(5-(2-(methyl(2,2,2-trifluoroethyl)amino)ethoxy)-1,3,4-thiadiazol-2-yl)-[4,4′-bipyridine]-3-carboxamide]
1000 to 10000	COc1nnc(NC(=O)c2cnc(C)cc2-c2ccc(F)c(F)c2)s1 [Example 354, 4-(3,4-difluorophenyl)-N-(5-methoxy-1,3,4-thiadiazol-2-yl)-6-methylpyridine-3-carboxamide]
1000 to 10000	COc1nnc(NC(=O)c2cnc(C)cc2-c2cccc(C(=O)NC3CC3)c2)s1 [Example 344, 4-[3(cyclopropylcarbamoyl)phenyl]-N-(5-methoxy-1,3,4-thiadiazol-2-yl)-6-methylpyridine-3carboxamide]
1000 to 10000	COc1nnc(NC(=O)c2cnc(C)cc2-c2ccc3c(c2)C(=O)NC3)s1 [Example 332, N-(5-methoxy-1,3,4-thiadiazol-2-yl)-6-methyl-4-(3-oxo-2,3-dihydro-1H-isoindol-5-yl)pyridine-3-carboxamide]
200 to 500	COc1nnc(NC(=O)c2cc(N(C)C)ncc2-c2cc(Cl)ncc2OC)s1 [Example 311, 2′-chloro-6-(dimethylamino)-5′-methoxy-N-(5-methoxy-1,3,4-thiadiazol-2-yl)-[3,4′-bipyridine]-4-carboxamide]
1000 to 10000	COc1nnc(NC(=O)c2cnc(C)cc2-c2cnc3[nH]ccc3c2)s1 [Example 399, N-(5-methoxy-1,3,4-thiadiazol-2-yl)-6-methyl-4-{1H-pyrrolo[2,3-b]pyridin-5-yl}pyridine-3-carboxamide]
≤ 200	COc1cnc(Cl)cc1-c1cc(C)ncc1C(=O)Nc1nnc(O[C@H]2CCCN(C3CCOC3)C2)s1 (stereo in doubt) [Example 310, 2′-chloro-5′-methoxy-6-methyl-N-(5-(((S)-1-((S)-tetrahydrofuran-3-yl)piperidin-3-yl)oxy)-1,3,4-thiadiazol-2-yl)-[4,4′-bipyridine]-3-carboxamide]
≤ 200	COc1cnc(Cl)cc1-c1cc(C)ncc1C(=O)Nc1nnc(O[C@H]2CCCN([C@@H]3CCOC3)C2)s1 [Example 309, 2′-chloro-5′-methoxy-6-methyl-N-(5-(((S)-1-((R)-tetrahydrofuran-3-yl)piperidin-3-yl)oxy)-1,3,4-thiadiazol-2-yl)-[4,4′-bipyridine]-3-carboxamide]

Same assay, conditions: Table 4; Pol theta (1-899) 5 nM, ATP, dT50 ssDNA

IC50 [nM]	Compound
1000 to 10000	COc1nnc(NC(=O)c2cnc(C)cc2-c2cc3[nH]ncc3cc2OC)s1 [Example 67, N-(5-methoxy-1,3,4-thiadiazol-2-yl)-4-(5-methoxy-1H-indazol-6-yl)-6-methylnicotinamide]
1000 to 10000	COc1nnc(NC(=O)c2cnc(C)cc2-c2c(C)n[nH]c2C)s1 [Example 40, 4-(3,5-dimethyl-1H-pyrazol-4-yl)-N-(5-methoxy-1,3,4-thiadiazol-2-yl)-6-methylnicotinamide]
≤ 200	COc1cnc(Cl)cc1-c1cc(C)ncc1C(=O)Nc1nnc(O[C@H]2CCO[C@H]2C)s1 (single isomer, unassigned) [Example 76, 2′-chloro-5′-methoxy-6-methyl-N-(5-(((2r,3r)-2-methyltetrahydrofuran-3-yl)oxy)-1,3,4-thiadiazol-2-yl)-(4,4′-bipyridine)-3-carboxamide]
500 to 1000	COc1nnc(NC(=O)c2cnc(C)cc2-c2ccccc2OC)s1 [Example 54, N-(5-methoxy-1,3,4-thiadiazol-2-yl)-4-(2-methoxyphenyl)-6-methylnicotinamide]
≤ 200	COc1nnc(NC(=O)c2cnc(C)cc2-c2cc(C)ccc2OC)s1 [Example 30, N-(5-methoxy-1,3,4-thiadiazol-2-yl)-4-(2-methoxy-5-methylphenyl)-6-methylnicotinamide]
≤ 200	COc1nnc(NC(=O)c2cnc(C)cc2-c2ccnc(Cl)c2)s1 [Example 75, 2′-chloro-N-(5-methoxy-1,3,4-thiadiazol-2-yl)-6-methyl-(4,4′-bipyridine)-3-carboxamide]

Same assay, conditions: Table 5; Pol theta (1-899) 5 nM, ATP, dT50 ssDNA

IC50 [nM]	Compound
≤ 200	COc1nnc(NC(=O)c2cn3c(C)ncc3cc2-c2cc(Cl)ncc2OC)s1 [Example 103, 7-(2-chloro-5-methoxypyridin-4-yl)-N-(5-methoxy-1,3,4-thiadiazol-2-yl)-3-methylimidazo(1,5-a)pyridine-6-carboxamide]
≤ 200	COc1cnc(Cl)c(F)c1-c1cc(C)ncc1C(=O)Nc1nnc(O[C@H]2CC[C@@H](OC)CC2)s1 (single isomer, unassigned) [Example 152, 2′-chloro-3′-fluoro-5′-methoxy-N-(5-(((1s,4s)-4-methoxycyclohexyl)oxy)-1,3,4-thiadiazol-2-yl)-6-methyl-(4,4′-bipyridine)-3-carboxamide]
≤ 200	COc1cnc(Cl)cc1-c1cc(C)ncc1C(=O)Nc1nnc(O[C@H]2CCC[C@H](O)C2)s1 (single isomer, unassigned) [Example 161]
200 to 500	COc1nnc(NC(=O)c2cnc(C)cc2-c2c(OC)cnc(Cl)c2C)s1 [Example 79, 2′-chloro-5′-methoxy-N-(5-methoxy-1,3,4-thiadiazol-2-yl)-3′,6-dimethyl-(4,4′-bipyridine)-3-carboxamide]
1000 to 10000	COc1nnc(NC(=O)c2cnc(C)cc2-c2ccnc3ncnn23)s1 [Example 91, 4-((1,2,4)triazolo(1,5-a)pyrimidin-7-yl)-N-(5-methoxy-1,3,4-thiadiazol-2-yl)-6-methylnicotinamide]
≤ 200	COc1cnc(Cl)c(F)c1-c1cc(C)ncc1C(=O)Nc1nnc(O[C@H]2CC[C@H](OC)CC2)s1 (single isomer, unassigned) [Example 153, 2′-chloro-3′-fluoro-5′-methoxy-N-(5-(((1r,4r)-4-methoxycyclohexyl)oxy)-1,3,4-thiadiazol-2-yl)-6-methyl-(4,4′-bipyridine)-3-carboxamide]
200 to 500	COc1cnc(Cl)cc1-c1cc(C)ncc1C(=O)Nc1nnc(O[C@H]2CCC[C@@](C)(O)C2)s1 (racemic) [Example 177, rac-2′-chloro-N-(5-(((1R,3S)-3-hydroxy-3-methylcyclohexyl)oxy)-1,3,4-thiadiazol-2-yl)-5′-methoxy-6-methyl-(4,4′-bipyridine)-3-carboxamide]
≤ 200	COc1cnc(Cl)cc1-c1cc(C)ncc1C(=O)Nc1nnc(O[C@H]2CCC[C@@H](O)C2)s1 (single isomer, unassigned) [Example 159]
≤ 200	COc1cnc(Cl)cc1-c1cc(C)ncc1C(=O)Nc1nnc(O[C@H]2CCC[C@@H](OC)C2)s1 (single isomer, unassigned) [Example 145]
≤ 200	COc1cnc(Br)cc1-c1cc(C)ncc1C(=O)Nc1nnc(O[C@H]2COC3(CC3)C2)s1 (single isomer, unassigned) [Example 227]

Compound	IC50 [nM]
COc1cnc(Cl)cc1-c1cc(C)ncc1C(=O)Nc1nnc(O[C@H]2C[C@@H](O)C2(C)C)s1 (single isomer, unassigned) [Example 183, 2′-chloro-N-(5-((1r,3s)-3-hydroxy-2,2-dimethylcyclobutoxy)-1,3,4-thiadiazol-2-yl)-5′-methoxy-6-methyl-(4,4′-bipyridine)-3-carboxamide]	≤ 200

Same assay, conditions: Table 5; values given as bound; Pol theta (1-899) 5 nM, ATP, dT50 ssDNA

IC50 [nM]	Compound
> 10000	COc1nnc(NC(=O)c2cc(CO)ncc2-c2c(F)cccc2OC)s1 [Example 121, 5-(2-fluoro-6-methoxyphenyl)-2-(hydroxymethyl)-N-(5-methoxy-1,3,4-thiadiazol-2-yl)isonicotinamide]
